Data taken from patent publication US7939639B2, “Functional role of adrenomedullin (AM) and the gene related product (PAMP) in human pathology and physiology” (The United States of America as represented by the …, priority 1995, dated 2011).
Entries after “also recorded” stand apart in the source; their conditions may differ.

Columns and labels:
[1] = system: tumor cell lines (lung, colon, breast, brain, and ovary); assay type: cell-based, human; conditions: R0-grown cultures; AM 0.1 μM to 100 μM, 0.1 nM to 100 nM
Source text: Results Obtained by Immunohistochemical (IHc) and in situ RT-PCR examination of paraffin-embedded RO-adapted cell lines were consistent with previously reported data on normal lung and pathological lung specimens (Martinez, A., et al., Endocrinology 136:4099-4105 (1995)). […] To further investigate this suspected phenomenon, MTT assay techniques were used to examine the effects of AM on the growth of several diverse tumor cell lines (lung, colon, breast, brain, and ovary). […] Since the test cells were known to produce authentic AM peptide, we assumed that this inability to stimulate growth with extrinsic ligand could possibly mean that the cells has already achieved maximal proliferative effects using their own AM.
i. Growth Assays: MTT techniques were performed as previously described (Nakanishi, Y. F., et al., Exper. Cell Biol. 56:74-85 (1988)). In brief, a single cell suspension of 2×10^5 cells/ml (50 μl/well) is seeded into 96-well PVC plates and an appropriate concentration of MoAb-G6 and AM was added in a volume of 50 μl. The assay is performed in TIS medium (RMPI 1640 plus 10 μg/ml transferrin, 10 μg/ml insulin and 3×10^−8M sodium selenite). […] The Biorad Microplate Manager plate reader and software was used to determine the change in number of viable cells from dye reduction measured by absorbance at 570 nm. […]

[2] = system: AM receptor; assay: cAMP assay (RIA), MCF-7; assay type: cell-based, human
Procedure: k. cAMP Assays: Cyclic AMP was assayed by RIA using a kit obtained from New England Nuclear (Boston, Mass.). […] The supernatants were tested for cAMP using the RIA kit following the manufacturer's instructions.

[3] = system: E. coli; assay: Macrodilution assay, E. coli; assay type: cell-based, Escherichia coli; conditions: E. coli
Procedure: Data were compiled from six experiments. Macrodilution assays were performed in 12×75 mm borosilicate glass tubes. Organisms were grown and harvested, as described in Roilides, E., et al., J Infect Dis. 163:579 (1991), and adjusted to a final inoculum concentration of 8×10^3 cfu/ml in 400 μl. […] Tubes were incubated at 37° C. with gentle agitation over 24 hours. At 6 and 24 hour time points, 100 μl aliquots from each tube were quantitatively cultured by serial 100-fold dilutions onto TSA and SDA plates.

[4] = system: C. albicans; assay: Germination assay, C. albicans; assay type: cell-based, Candida albicans
Procedure: Data were compiled from 11 experiments. Germination was determined by incubating colonies of C. albicans that were harvested from an overnight growth on SDA and suspended on RPMI-1640 containing concentrations of AM from 8 to 85 μM. Organisms were incubated at 37° C. and germination was measured at 2 h and 4 h by reading 100 to 200 organisms per concentration per time point in each experiment. Percent germination was assessed as the proportion of blastoconidia of C. albicans bearing the characteristic parallel-walled tubular element to the total number of blastoconidia.

[5] = system: rat isolated islets; assay: Insulin release from rat isolated islets (RIA); assay type: cell-based
Procedure: (§1) Dose-dependent increase of intracellular cAMP in the islets following addition of AM. Islets from six rats were isolated following well-established protocols (Gray, et al., Diabetes 33, 1055 (1984)). Assays were performed in 24-well plates (90 islets per well). After a 45 min incubation in […] medium containing 5.6 mM glucose, a second incubation in RPMI containing 20.6 mM glucose and the proper concentration of AM and/or the antibody was performed. Supernatants from both incubations were tested by radioimmunoassay (RIA) for insulin (Amersham, Arlington Heights, Ill.). The ratio between the insulin concentration found in the high glucose supernatant and the insulin measured in the low glucose solution is represented in ordinates. After collecting the medium, the islets from the same experiments were saved for analysis of cAMP contents (Korman, et al., Cancer Res. 46, 1214 (1986)). Islets were extracted in 50% ethanol and centrifuged, and the supernatants were tested for cAMP using a RIA kit (New England Nuclear, Boston, Mass.) following manufacturer's instructions. The experiments were repeated three times and a representative example shown. Data are means±standard deviations of two wells.

[6] = system: rat isolated islets; assay: cAMP content of rat isolated islets (RIA); assay type: cell-based; conditions: after addition of AM
Procedure: as §1

[7] = system: RINm, N289, TR4, CRL 2057, CRL 1777, CRL 2055; assay: Insulin secretion of insulin-producing cell lines; assay type: cell-based; conditions: six insulin-producing cell lines
Source text: A similar mechanism has been described for amylin (R. A. Pittner et al., J. Cell. Biochem. 55S, 19 (1994)).

[8] = Oral glucose tolerance test in nonanesthetized rats; assay type: in vivo, Sprague-Dawley rats
Procedure: Glucose tolerance tests were performed on Sprague-Dawley rats (250 to 300 g) in the presence (◯) or absence (●) of AM. […] Glucose tolerance methods have been published previously (Brown, et al., Proc. Soc. Exp. Biol. Med. 150, 557 (1975)). Six rats were administered a glucose solution (400 mg/100 g body weight) via gastric intubation. Ocular blood samples were collected at intervals following glucose loading, and glucose concentration was determined by a calorimetric assay (Sigma). Blood insulin levels were determined on the same samples by radioimmunoassay (Amersham). Three days later, the same rats received 1 μL, of AM (60 μM) per g body weight through intravenous injection and tolerance tests were repeated. Data are means±standard deviations for the six animals. Two-tailed Student's test was performed to determine statistical significance. (*) indicates statistical significance (p<0.01).

[9] = system: rat mast cells

CC[C@H](C)[C@H](NC(=O)[C@H](CCC(N)=O)NC(=O)[C@H](Cc1c[nH]cn1)NC(=O)[C@H](C)NC(=O)[C@H](CC(C)C)NC(=O)[C@H](CCCCN)NC(=O)[C@H](CCC(N)=O)NC(=O)[C@@H](NC(=O)[C@@H](NC(=O)[C@@H]1CSSC[C@H](NC(=O)CNC(=O)[C@H](Cc2ccccc2)NC(=O)[C@H](CO)NC(=O)[C@H](CCCNC(=N)N)NC(=O)[C@H](CC(C)C)NC(=O)CNC(=O)[C@H](CCC(N)=O)NC(=O)[C@H](Cc2ccccc2)NC(=O)[C@H](CC(N)=O)NC(=O)[C@H](CC(N)=O)NC(=O)[C@H](CCSC)NC(=O)[C@H](CO)NC(=O)[C@H](CCC(N)=O)NC(=O)[C@H](CCCNC(=N)N)NC(=O)[C@@H](N)Cc2ccc(O)cc2)C(=O)N[C@@H](CCCNC(=N)N)C(=O)N[C@@H](Cc2ccccc2)C(=O)NCC(=O)N[C@@H]([C@@H](C)O)C(=O)N1)[C@@H](C)O)C(C)C)C(=O)N[C@@H](Cc1ccc(O)cc1)C(=O)N[C@@H](CCC(N)=O)C(=O)N[C@@H](Cc1ccccc1)C(=O)N[C@H](C(=O)N[C@@H](CC(=O)O)C(=O)N[C@@H](CCCCN)C(=O)N[C@@H](CC(=O)O)C(=O)N[C@@H](CCCCN)C(=O)N[C@@H](CC(=O)O)C(=O)N[C@@H](CC(N)=O)C(=O)N[C@H](C(=O)N[C@@H](C)C(=O)N1CCC[C@H]1C(=O)N[C@@H](CCCNC(=N)N)C(=O)N[C@@H](CO)C(=O)N[C@@H](CCCCN)C(=O)N[C@H](C(=O)N[C@@H](CO)C(=O)N1CCC[C@H]1C(=O)N[C@@H](CCC(N)=O)C(=O)NCC(=O)N[C@@H](Cc1ccc(O)cc1)C(N)=O)[C@@H](C)CC)C(C)C)[C@@H](C)O [AM]
stimulation of growth by exogenous AM [1]: ineffective in stimulating growth | effect on cAMP ([2]; MCF-7): activated; also recorded: rapid increase in cellular cAMP | maximum elevation of cellular cAMP ([2]; relative to normal control): three times that of the normal control | antimicrobial activity, macrodilution, 6 hours ([3]; 6 hours incubation): no activity | antimicrobial activity, macrodilution, 24 hours ([3]; 24 hours incubation): somewhat more active than PAMP; also recorded: slightly more active than PAMP | suppression of germination of C. albicans, 2 hours ([4]; 2 hours incubation): non-significant trend in the suppression of germination; also recorded: not significant | inhibition of germination of C. albicans, 4 hours ([4]; increasing concentrations of AM (8 to 85 μM), 4 hours incubation): significant inhibition of germination | inhibition of insulin secretion ([5]; AM concentration of 1 μM, freshly isolated islets): 78% | effect of AM on insulin secretion ([5]; isolated islets): inhibits insulin secretion in a dose-dependent manner; also recorded: dose-dependent reduction of insulin secretion; also recorded: reduces insulin secretion | cAMP levels in the islets [6]: Elevating levels of cAMP; also recorded: cAMP levels increased | change in insulin secretion rate [7]: no change in insulin secretion rate; also recorded: not directly affected | insulin levels versus control ([8]; 20 min after intravenous injection of AM): Significant differences | duration of block of insulin secretion ([8]; after intravenous injection of AM (1 μL of 60 μM per g body weight)): at least 20 min | levels of circulating glucose versus control ([8]; after intravenous injection of AM, 1 h): significantly higher; also recorded: highly significant | EC50 [9]: 7.9 ± 3.9 µM
